Each structure is given as a SMILES string. Counter-ions that a name gives are not always drawn.

IC50 data for 30 compounds are collected here from patent US8377967B2, “Piperidine derivative” (Nippon Zoki Pharmaceutical Co., Ltd., priority 2008, dated 2013).

Sequence of human histamine H1 receptor (P35367 whole entry): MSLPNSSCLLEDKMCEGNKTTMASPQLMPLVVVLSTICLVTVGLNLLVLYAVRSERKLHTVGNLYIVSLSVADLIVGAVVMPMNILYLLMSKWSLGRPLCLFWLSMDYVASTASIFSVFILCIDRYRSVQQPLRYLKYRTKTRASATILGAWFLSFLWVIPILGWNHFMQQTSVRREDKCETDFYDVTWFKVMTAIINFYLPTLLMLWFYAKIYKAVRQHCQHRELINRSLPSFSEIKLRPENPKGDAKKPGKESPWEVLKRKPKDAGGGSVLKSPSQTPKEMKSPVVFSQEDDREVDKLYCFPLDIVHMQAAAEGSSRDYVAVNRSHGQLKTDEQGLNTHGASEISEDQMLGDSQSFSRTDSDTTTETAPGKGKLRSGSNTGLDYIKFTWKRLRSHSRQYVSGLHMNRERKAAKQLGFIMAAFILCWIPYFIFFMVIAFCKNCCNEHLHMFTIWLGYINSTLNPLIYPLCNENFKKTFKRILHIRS

The target of the assay is human histamine H1 receptor (Homo sapiens, UniProt P35367). The assay can be described thus: In vitro human histamine H1 receptor binding experiment ([3H]pyrilamine). The settings on record: HEK293A cells stably expressing human histamine H1 receptor, [3H]pyrilamine 3 nmol/L, room temperature 60 minutes. The procedure:
Recombinant human histamine H1 receptor plasmid (prepared by Invitrogen) was transfected to HEK293A cells with Lipofectamine 2000 (manufactured by Invitrogen). Cells stably expressing human histamine H1 receptor were screened with Geneticin (manufactured by Invitrogen). The cells were continued to be cultured using a Dulbecco's Modified Eagle Medium containing 10% fetal bovine serum, 0.1 mmol/L MEM Non-Essential Amino Acids Solution, 2 mmol/L L-glutamine and 0.7 mg/mL Geneticin in a 5% CO2 incubator at 37° C. The cells stably expressing human histamine H1 receptor were prepared using 50 mmol/L Tris-HCl (pH 7.5) (hereinafter referred to as buffer) containing 0.1% bovine serum albumin, so as to have a concentration of 3×10^6 cells/mL, to give a cell sample preparation. Fifty microliters of the buffer, 50 μl of a test substance solution at various concentrations, and 50 μL of [^3H]pyrilamine solution (final concentration: 3 nmol/L) were added to each of the wells on the 96-well plate, and stirred, and 100 μL of the cell sample preparation was then added thereto (at a concentration of 3×10^5 cells/well) to initiate the reaction.
The cells were incubated at room temperature for 60 minutes, and then filtered on UniFilter GF/C plate (manufactured by Packard) immersed in 0.5% polyethyleneimine using a cell harvester (IH-110, manufactured by INNOTECH CORPORATION), to stop the reaction, and the plate was washed with the buffer. The plate after washing was sufficiently dried, and 20 μL of a scintillator (MaxiLight, manufactured by Hidex) was added thereto, and count per minute (cpm) was measured with a multi-labeled microplate reader (Plate Chameleo II, manufactured by Hidex). The nonspecific binding was cpm in a case where 30 μmol/L pyrilamine was added. The experiments were carried out at n=3, and at least repeated 3 times.
What is called IC50 is the point on the concentration scale where inhibition reaches its midpoint. For the compound `CN1CCC(=C2c3ccccc3CCc3sc(CC(=O)NCCO)cc32)CC1` [Compound 63, N-(2-Hydroxyethyl)-{[4-(1-methylpiperidin-4-ylidene)-9,10-dihydro-4H-1-thiabenzo[f]azulen-2-yl]}acetamide], the IC50 turned out to be 42 nM. `CCCN1CCC(=C2c3ccccc3CCc3sc(C(=O)OCC)cc32)CC1` [Compound 133, Ethyl 4-(1-propylpiperidin-4-ylidene)-9,10-dihydro-4H-1-thiabenzo[f]azulene-2-carboxylate hydrochloride]: the IC50 is 17 nM. As for `CCOCCN1CCC(=C2c3ccccc3CCc3sc(C(=O)OCC)cc32)CC1` [Compound 181, Ethyl 4-[1-(2-ethoxyethyl)piperidin-4-ylidene]-9,10-dihydro-4H-1-thiabenzo[f]azulene-2-carboxylate hydrochloride], the figure is 13 nM.

Take `CN1CCC(=C2c3cc(CCCCC(=O)O)ccc3OCc3ccsc32)CC1` [Compound 157, 5-[4-(1-Methylpiperidin-4-ylidene)-4,10-dihydro-9-oxa-3-thiabenzo[f]azulen-6-yl]valeric acid]: the half-inhibitory concentration (IC50) was determined as 90.5 nM. The figure for `CCOC(=O)c1ccc2c(c1)C(=C1CCN(C)CC1)c1ccsc1CC2` [Compound 95, Ethyl[4-(1-methylpiperidin-4-ylidene)-9,10-dihydro-4H-1-thiabenzo[f]azulen-6-yl]carboxylate] is 14.9 nM; for `CCOC(=O)c1cc2c(s1)C(=O)Cc1ccccc1C2=C1CCN(C)CC1` [Compound 50, Ethyl[4-(1-methylpiperidin-4-ylidene)-10-oxo-9,10-dihydro-4H-1-thiabenzo[f]azulen-2-yl]carboxylate] it is 16.9 nM; for `COC(=O)Cc1ccc2c(c1)C(=C1CCN(CCNC(N)=O)CC1)c1sccc1CO2` [Compound 174, Methyl {4-[1-(2-ureidoethyl)piperidin-4-ylidene]-4,10-dihydro-9-oxa-3-thiabenzo[f]azulen-6-yl}acetate] it is 11 nM. The compound `COC(=O)CCCc1ccc2c(c1)C(=C1CCN(CCCC(C)=O)CC1)c1sccc1CO2` [Compound 187, Methyl 4-{4-[1-(4-oxopentyl)piperidin-4-ylidene]-4,10-dihydro-9-oxa-3-thiabenzo[f]azulen-6-yl}butyrate hydrochloride] registered an IC50 of 8.76 nM.

With `COC(=O)CCCCc1ccc2c(c1)C(=C1CCN(C)CC1)c1sccc1CO2` [Compound 156, Methyl 5-[4-(1-methylpiperidin-4-ylidene)-4,10-dihydro-9-oxa-3-thiabenzo[f]azulen-6-yl]valerate hydrochloride], the IC50 turned out to be 9.66 nM. Take `CC(OC(=O)OC1CCCCC1)OC(=O)c1cc2c(s1)CCc1ccccc1C2=C1CCN(C)CC1` (stereo not drawn) [Compound 176, 1-Cyclohexyloxycarbonyloxyethyl 4-(1-methylpiperidin-4-ylidene)-9,10-dihydro-4H-1-thiabenzo[f]azulene-2-carboxylate hydrochloride]: the IC50 was 72.7 nM. `CCOC(=O)c1cc2c(s1)C(=C1CCN(C)CC1)c1ccccc1OC2` [Compound 44, Ethyl[4-(1-methylpiperidin-4-ylidene)-4,10-dihydro-9-oxa-3-thiabenzo[f]azulen-2-yl]carboxylate hydrochloride] yielded a half-maximal inhibitory concentration (IC50) of 19.2 nM. As for `CCOC(=O)c1cc2c(s1)CCc1ccccc1C2=C1CCN(CC)CC1` [Compound 103, Ethyl[4-(1-ethylpiperidin-4-ylidene)-9,10-dihydro-4H-1-thiabenzo[f]azulen-2-yl]carboxylate hydrochloride], the figure is 35.4 nM.

In the case of `COC(=O)Cc1ccc2c(c1)C(=C1CCN(CCCN3CCCCC3)CC1)c1sccc1CO2` [Compound 163, Methyl {4-[1-(3-piperidin-1-yl-propyl)piperidin-4-ylidene]-4,10-dihydro-9-oxa-3-thiabenzo[f]azulen-6-yl}acetate dihydrochloride], the IC50 is 90.8 nM.

`CONC(=O)c1cc2c(s1)CCc1ccccc1C2=C1CCN(C)CC1` [Compound 40, N-Methoxy [4-(1-methylpiperidin-4-ylidene)-9,10-dihydro-4H-1-thiabenzo[f]azulen-2-yl]carboxamide hydrochloride] yielded an IC50 of 52.1 nM.

`CCOC(=O)C=Cc1cc2c(s1)CCc1ccccc1C2=C1CCN(CC)CC1` [Compound 158, Ethyl 3-[4-(1-ethylpiperidin-4-ylidene)-9,10-dihydro-4H-1-thiabenzo[f]azulen-2-yl]acrylate] had an IC50 of 47 nM.

Compound `COCCNC(=O)c1cc2c(s1)CCc1ccccc1C2=C1CCN(C)CC1` [Compound 38, N-(2-Methoxyethyl)-[4-(1-methylpiperidin-4-ylidene)-9,10-dihydro-4H-1-thiabenzo[f]azulen-2-yl]carboxamide hydrochloride] registered an IC50 of 70.8 nM.

The compound `COC(=O)Cc1ccc2c(c1)C(=C1CCN(CCCNS(C)(=O)=O)CC1)c1sccc1CO2` [Compound 193, Methyl {4-[1-(3-methanesulfonylaminopropyl)piperidin-4-ylidene]-4,10-dihydro-9-oxa-3-thiabenzo[f]azulen-6-yl}acetate hydrochloride] registered an IC50 of 13.1 nM.

`CCOC(=O)C(C)(C)c1cc2c(s1)CCc1ccccc1C2=C1CCN(CC)CC1` [Compound 154, Ethyl 2-[4-(1-ethylpiperidin-4-ylidene)-9,10-dihydro-4H-1-thiabenzo[f]azulen-2-yl]-2-methylpropionate hydrochloride] yielded an IC50 of 25.6 nM.

Consider `CN1CCC(=C2c3ccccc3CCc3sc(C(=O)NC(C)(C)CO)cc32)CC1` [Compound 80, N-(2-Methyl-1-hydroxyprop-2-yl)-{[4-(1-methylpiperidin-4-ylidene)-9,10-dihydro-4H-1-thiabenzo[f]azulen-2-yl]}carboxamide], for which the IC50 was 69.9 nM.

On to `CCOC(=O)Cc1ccc2c(c1)C(=C1CCN(C)CC1)c1sccc1CC2` [Compound 147, Ethyl[4-(1-methylpiperidin-4-ylidene)-9,10-dihydro-4H-3-thiabenzo[f]azulen-6-yl]acetate hydrochloride], for which the IC50 amounted to 4.04 nM.

In the case of `N#CCCN1CCC(=C2c3ccccc3CCc3sc(C(=O)O)cc32)CC1` [Compound 94, {4-[1-(2-Cyanoethyl)piperidin-4-ylidene]-9,10-dihydro-4H-1-thiabenzo[f]azulen-2-yl}carboxylic acid], the 50% inhibitory concentration (IC50) was found to be 69 nM. `CCCNC(=O)c1cc2c(s1)CCc1ccccc1C2=C1CCN(C)CC1` [Compound 85, N-Propyl-{[4-(1-methylpiperidin-4-ylidene)-9,10-dihydro-4H-1-thiabenzo[f]azulen-2-yl]}carboxamide]: the concentration for half-maximal inhibition (IC50) came out at 27.5 nM.

Compound `CN1CCC(=C2c3ccccc3CCc3sc(C(=O)NCCF)cc32)CC1` [Compound 77, N-(2-Fluoroethyl)-{[4-(1-methylpiperidin-4-ylidene)-9,10-dihydro-4H-1-thiabenzo[f]azulen-2-yl]}carboxamide] showed an IC50 of 37.8 nM. `CC(C(=O)O)c1ccc2c(c1)C(=C1CCN(C)CC1)c1sccc1CO2` (stereo not drawn) [Compound 57, 2-[4-(1-Methylpiperidin-4-ylidene)-4,10-dihydro-9-oxa-3-thiabenzo[f]azulen-6-yl]propionic acid hydrochloride]: the IC50 stood at 70.1 nM. Take `OCCc1ccc2c(c1)C(=C1CCN(CCO)CC1)c1sccc1CO2` [Compound 122, 2-{4-[1-(2-Hydroxyethyl)piperidin-4-ylidene]-4,10-dihydro-9-oxa-3-thiabenzo[f]azulen-6-yl}ethanol]: the IC50 was 13.4 nM. With `CN1CCC(=C2c3ccccc3CCc3cc(NC(=O)OC(C)(C)C)sc32)CC1` [Compound 10, 2-t-Butoxycarbonylamino-4-(1-methylpiperidin-4-ylidene)-9,10-dihydro-4H-3-thiabenzo[f]azulene], the IC50 was 88.5 nM.

`CCOC(=O)Nc1cc2c(s1)CCc1ccccc1C2=C1CCN(C)CC1` [Compound 75, 2-Ethoxycarbonylamino-4-(1-methylpiperidin-4-ylidene)-9,10-dihydro-4H-1-thiabenzo[f]azulene] came in with an IC50 of 74.8 nM. `CON(C)C(=O)c1cc2c(s1)CCc1ccccc1C2=C1CCN(C)CC1` [Compound 84, N-Methyl-N-methoxy-{[4-(1-methylpiperidin-4-ylidene)-9,10-dihydro-4H-1-thiabenzo[f]azulen-2-yl]}carboxamide]: the IC50 came out at 38.4 nM.

Turning to `CN1CCC(=C2c3ccccc3CCc3sc(C(=O)N(C)O)cc32)CC1` [Compound 74, N-Hydroxy-N-methyl-{[4-(1-methylpiperidin-4-ylidene)-9,10-dihydro-4H-1-thiabenzo[f]azulen-2-yl]}carboxamide], the IC50 was 70.9 nM.

`CCOC(=O)CCc1cc2c(s1)CCc1ccccc1C2=C1CCN(C)CC1` [Compound 97, Ethyl 3-[4-(1-methylpiperidin-4-ylidene)-9,10-dihydro-4H-1-thiabenzo[f]azulen-2-yl]propionate] had a 50% inhibitory concentration (IC50) of 16.9 nM.
